Our source for the remaining activity and IC50 values is article PMC7827406, “Structure–Activity Relationship (SAR) Study of Spautin-1 to Entail the Discovery of Novel NEK4 Inhibitors” (International Journal of Molecular Sciences, 2021).

For assay [1], the target named is T1, EGFR (Homo sapiens, UniProt P00533). The experiment in a line: kinase panel (Eurofins), residual activity at […]. In kind it is biochemical.
In assay [2] the target is T2, CLK4 (Homo sapiens, UniProt Q9HAZ1). The experiment in a line: kinase panel (Eurofins), residual activity at […]. Format: biochemical.
T2 sequence (Q9HAZ1 whole entry): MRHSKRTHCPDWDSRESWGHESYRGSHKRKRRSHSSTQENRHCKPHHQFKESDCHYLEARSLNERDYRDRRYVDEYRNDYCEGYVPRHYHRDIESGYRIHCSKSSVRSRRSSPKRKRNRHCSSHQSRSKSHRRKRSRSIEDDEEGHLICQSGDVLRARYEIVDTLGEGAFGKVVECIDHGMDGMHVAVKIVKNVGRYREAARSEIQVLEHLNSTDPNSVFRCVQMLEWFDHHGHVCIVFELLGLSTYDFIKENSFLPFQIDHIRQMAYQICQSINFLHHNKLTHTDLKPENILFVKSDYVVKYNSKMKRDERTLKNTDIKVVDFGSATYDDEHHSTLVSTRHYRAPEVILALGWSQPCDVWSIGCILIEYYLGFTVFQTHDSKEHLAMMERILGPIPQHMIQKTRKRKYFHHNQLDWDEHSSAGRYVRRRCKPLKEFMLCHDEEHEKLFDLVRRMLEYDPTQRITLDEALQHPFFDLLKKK
For assay [3], the target named is T3, ARK5(h) (Homo sapiens, UniProt O60285).
T3 construct: gene NUAK1
T3 sequence (O60285 1-661): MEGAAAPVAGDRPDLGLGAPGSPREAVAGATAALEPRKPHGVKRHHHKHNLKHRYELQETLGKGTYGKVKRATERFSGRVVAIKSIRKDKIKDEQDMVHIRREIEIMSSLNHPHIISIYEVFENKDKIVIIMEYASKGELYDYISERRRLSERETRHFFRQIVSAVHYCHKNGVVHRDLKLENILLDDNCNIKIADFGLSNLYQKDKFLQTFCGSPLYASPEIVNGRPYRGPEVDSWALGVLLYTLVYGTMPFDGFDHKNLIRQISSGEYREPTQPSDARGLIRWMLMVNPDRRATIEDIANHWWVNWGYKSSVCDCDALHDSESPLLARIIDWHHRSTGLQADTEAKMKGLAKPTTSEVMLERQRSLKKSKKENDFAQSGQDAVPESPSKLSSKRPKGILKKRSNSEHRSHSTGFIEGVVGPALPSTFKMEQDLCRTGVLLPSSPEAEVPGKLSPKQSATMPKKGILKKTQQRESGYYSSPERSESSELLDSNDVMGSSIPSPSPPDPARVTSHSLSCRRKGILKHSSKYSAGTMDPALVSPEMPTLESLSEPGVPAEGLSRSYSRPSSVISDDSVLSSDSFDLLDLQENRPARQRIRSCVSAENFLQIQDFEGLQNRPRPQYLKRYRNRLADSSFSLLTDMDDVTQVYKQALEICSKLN
The experiment in a line: biochemical. The arrangement: Eurofins KinaseProfiler full panel at Km ATP, residual kinase activity (%) relative to DMSO. A digest of the protocol:
(§1)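 Radiometric kinase activity assays were run with ATP at Km and compounds at 10 µM, and remaining activity (%) was reported. A separate competitive binding screen measured DNA-tagged kinase displaced from immobilized active-site ligands by qPCR, giving percent kinase still bound at 10 µM compound in DMSO.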

Assay [4] concerns the target PAK6(h) (Homo sapiens, UniProt Q9NQU5). The experiment in a line: biochemical. On the set-up: Eurofins KinaseProfiler full panel at Km ATP, residual kinase activity (%) relative to DMSO. The gist of the method: as §1
Assay [5] concerns the target T4, PIP5K1g(h) (Homo sapiens, UniProt O60331).
T4 construct: gene PIP5K1C
Nature of the assay: biochemical. On the set-up: Eurofins KinaseProfiler full panel at Km ATP, residual kinase activity (%) relative to DMSO. The gist of the method: as §1

For assay [6], the target named is Plk3(h) (Homo sapiens, UniProt Q9H4B4). Nature of the assay: biochemical. On the set-up: Eurofins KinaseProfiler full panel at Km ATP, residual kinase activity (%) relative to DMSO. A digest of the protocol:
as §1

Assay [7] concerns the target T5, Rsk1(h) (Homo sapiens, UniProt Q15418).
T5 construct: gene RPS6KA1
Nature of the assay: biochemical. The arrangement: Eurofins KinaseProfiler full panel at Km ATP, residual kinase activity (%) relative to DMSO. The gist of the method: as §1

In assay [8] the target is T6, NEK4 (Homo sapiens, UniProt P51957). Nature of the assay: kinase panel (Eurofins), residual activity at […]. Format: biochemical. As to conditions: read-out: [drawing 3] / Residual Activity (%).
For assay [9], the target named is T2, CLK4. Nature of the assay: biochemical. The arrangement: Eurofins KinaseProfiler full panel at Km ATP, residual kinase activity (%) relative to DMSO. The gist of the method: as §1
In assay [10] the target is T1, EGFR. Nature of the assay: biochemical. The arrangement: Eurofins KinaseProfiler full panel at Km ATP, residual kinase activity (%) relative to DMSO. The gist of the method:
as §1

In assay [11] the target is T6, NEK4. Nature of the assay: radiometric kinase assay (Eurofins), IC50. In kind it is biochemical.
Where [12] appears, read: read-out: [drawing 1] / Residual Activity (%).
Where [13] appears, read: read-out: Residual activity (%) Spautin-1 5aa.
Setting [14] is: read-out: Residual activity (%) 5as.
The mark [15] stands for this setting: read-out: Residual activity (%) 5at.
[16] abbreviates: read-out: [drawing 2] / Residual Activity (%).
Setting [17] is: read-out: Residual activity (%) 5ay.

A word on the IC50: it is the concentration needed to halve the response being measured.

Where two headings read alike, the source gives them in different places.

T1 sequence (P00533 25-1210): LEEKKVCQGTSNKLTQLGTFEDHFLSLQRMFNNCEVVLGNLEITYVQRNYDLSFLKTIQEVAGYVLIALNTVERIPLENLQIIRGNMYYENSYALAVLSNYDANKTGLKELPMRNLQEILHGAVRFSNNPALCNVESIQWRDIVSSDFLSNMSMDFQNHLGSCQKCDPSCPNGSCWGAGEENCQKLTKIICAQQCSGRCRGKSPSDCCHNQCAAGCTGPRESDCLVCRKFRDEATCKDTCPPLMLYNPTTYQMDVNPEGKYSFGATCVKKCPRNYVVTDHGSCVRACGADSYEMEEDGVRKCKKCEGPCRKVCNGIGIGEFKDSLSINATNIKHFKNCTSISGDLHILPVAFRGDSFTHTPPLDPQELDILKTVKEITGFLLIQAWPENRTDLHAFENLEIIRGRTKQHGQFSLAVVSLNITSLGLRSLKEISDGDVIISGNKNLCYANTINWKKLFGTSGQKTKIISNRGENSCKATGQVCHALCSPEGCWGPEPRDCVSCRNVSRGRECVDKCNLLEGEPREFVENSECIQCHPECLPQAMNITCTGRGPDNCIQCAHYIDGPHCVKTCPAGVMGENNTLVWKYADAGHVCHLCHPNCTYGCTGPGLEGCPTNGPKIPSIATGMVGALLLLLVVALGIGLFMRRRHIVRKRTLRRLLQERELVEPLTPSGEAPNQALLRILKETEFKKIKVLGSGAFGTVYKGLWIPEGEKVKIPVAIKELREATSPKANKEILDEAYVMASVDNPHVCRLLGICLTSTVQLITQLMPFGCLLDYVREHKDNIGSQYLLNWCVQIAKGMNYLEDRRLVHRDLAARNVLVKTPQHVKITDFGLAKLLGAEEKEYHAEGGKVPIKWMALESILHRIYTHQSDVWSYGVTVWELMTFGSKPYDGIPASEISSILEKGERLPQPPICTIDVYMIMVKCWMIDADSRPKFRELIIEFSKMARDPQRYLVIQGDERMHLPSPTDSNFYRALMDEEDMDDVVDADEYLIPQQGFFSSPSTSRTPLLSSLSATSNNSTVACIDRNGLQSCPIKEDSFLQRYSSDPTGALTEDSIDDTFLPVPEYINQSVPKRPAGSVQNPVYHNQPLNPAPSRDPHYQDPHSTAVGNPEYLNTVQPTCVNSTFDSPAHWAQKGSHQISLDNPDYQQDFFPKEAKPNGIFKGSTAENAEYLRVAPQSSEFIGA
T5 sequence (Q15418 whole entry): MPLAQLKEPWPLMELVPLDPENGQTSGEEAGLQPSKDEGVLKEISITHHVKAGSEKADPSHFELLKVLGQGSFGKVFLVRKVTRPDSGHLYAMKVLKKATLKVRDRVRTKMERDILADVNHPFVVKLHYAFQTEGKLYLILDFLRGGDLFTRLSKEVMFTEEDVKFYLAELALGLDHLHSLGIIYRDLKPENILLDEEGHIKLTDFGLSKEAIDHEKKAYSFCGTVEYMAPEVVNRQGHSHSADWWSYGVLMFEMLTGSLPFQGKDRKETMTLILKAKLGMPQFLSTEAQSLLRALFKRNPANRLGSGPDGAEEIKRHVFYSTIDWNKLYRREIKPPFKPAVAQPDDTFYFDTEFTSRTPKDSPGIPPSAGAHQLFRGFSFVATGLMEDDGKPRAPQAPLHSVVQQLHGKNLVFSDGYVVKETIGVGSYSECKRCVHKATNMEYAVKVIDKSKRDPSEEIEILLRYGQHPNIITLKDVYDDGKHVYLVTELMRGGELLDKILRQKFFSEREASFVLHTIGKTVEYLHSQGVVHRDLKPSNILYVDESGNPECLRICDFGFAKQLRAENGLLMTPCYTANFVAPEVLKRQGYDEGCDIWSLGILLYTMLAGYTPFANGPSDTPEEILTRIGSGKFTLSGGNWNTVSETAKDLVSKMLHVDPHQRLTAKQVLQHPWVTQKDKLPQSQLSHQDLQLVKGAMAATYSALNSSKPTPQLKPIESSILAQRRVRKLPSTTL
Plk3(h), sequence (Q9H4B4 whole entry): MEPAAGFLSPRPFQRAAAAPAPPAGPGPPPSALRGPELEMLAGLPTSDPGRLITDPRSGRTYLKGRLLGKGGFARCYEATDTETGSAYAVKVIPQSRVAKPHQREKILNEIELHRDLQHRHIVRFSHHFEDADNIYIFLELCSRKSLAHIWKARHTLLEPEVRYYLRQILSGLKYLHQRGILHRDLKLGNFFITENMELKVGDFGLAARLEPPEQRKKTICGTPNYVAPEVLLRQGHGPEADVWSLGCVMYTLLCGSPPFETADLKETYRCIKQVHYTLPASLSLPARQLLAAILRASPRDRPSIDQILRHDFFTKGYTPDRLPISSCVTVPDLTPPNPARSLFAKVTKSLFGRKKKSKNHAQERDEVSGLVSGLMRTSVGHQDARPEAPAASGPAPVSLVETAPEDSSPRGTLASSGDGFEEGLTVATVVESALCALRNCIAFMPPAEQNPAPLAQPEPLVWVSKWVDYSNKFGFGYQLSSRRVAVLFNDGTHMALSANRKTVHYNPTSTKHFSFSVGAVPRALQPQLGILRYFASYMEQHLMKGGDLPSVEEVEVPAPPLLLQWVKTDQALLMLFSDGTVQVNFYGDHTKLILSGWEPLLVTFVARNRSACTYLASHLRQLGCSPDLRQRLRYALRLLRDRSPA
PAK6(h), sequence (Q9NQU5 whole entry): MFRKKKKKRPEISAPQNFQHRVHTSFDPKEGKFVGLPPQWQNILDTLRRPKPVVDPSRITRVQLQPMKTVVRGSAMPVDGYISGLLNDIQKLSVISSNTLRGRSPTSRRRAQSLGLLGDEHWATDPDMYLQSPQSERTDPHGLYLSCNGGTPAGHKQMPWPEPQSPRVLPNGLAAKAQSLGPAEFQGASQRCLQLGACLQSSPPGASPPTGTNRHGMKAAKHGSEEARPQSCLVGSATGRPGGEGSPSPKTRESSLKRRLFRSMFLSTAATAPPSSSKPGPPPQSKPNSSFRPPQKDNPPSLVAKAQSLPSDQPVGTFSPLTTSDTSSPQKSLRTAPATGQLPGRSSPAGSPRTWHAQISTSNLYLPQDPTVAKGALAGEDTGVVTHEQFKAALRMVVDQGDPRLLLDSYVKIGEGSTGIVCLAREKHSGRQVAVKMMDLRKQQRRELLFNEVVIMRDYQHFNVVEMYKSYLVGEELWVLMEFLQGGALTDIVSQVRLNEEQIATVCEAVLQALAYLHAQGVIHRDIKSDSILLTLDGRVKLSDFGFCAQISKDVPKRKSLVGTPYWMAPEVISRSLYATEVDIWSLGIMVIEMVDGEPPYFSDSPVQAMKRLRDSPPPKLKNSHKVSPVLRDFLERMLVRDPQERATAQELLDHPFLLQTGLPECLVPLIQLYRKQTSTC
T4 sequence (O60331 whole entry): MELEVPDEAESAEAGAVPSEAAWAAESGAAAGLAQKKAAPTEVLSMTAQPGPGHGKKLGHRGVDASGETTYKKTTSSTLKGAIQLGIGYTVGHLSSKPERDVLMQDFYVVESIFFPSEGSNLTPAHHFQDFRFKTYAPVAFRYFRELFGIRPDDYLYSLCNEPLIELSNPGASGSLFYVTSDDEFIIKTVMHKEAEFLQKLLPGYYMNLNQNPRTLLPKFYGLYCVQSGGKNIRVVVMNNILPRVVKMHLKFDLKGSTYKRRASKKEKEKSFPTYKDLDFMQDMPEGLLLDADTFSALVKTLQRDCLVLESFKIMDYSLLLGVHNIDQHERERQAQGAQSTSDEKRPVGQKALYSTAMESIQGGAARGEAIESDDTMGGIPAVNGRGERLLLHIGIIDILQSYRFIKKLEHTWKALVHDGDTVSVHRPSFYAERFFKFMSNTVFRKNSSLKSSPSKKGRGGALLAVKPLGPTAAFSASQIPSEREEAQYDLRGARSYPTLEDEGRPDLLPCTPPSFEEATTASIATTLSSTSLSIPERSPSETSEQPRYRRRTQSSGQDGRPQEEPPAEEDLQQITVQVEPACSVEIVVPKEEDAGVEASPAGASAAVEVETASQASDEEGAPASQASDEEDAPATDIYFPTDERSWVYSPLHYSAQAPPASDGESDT

Regarding `Fc1ccc(CNc2ncnc3ccc(F)cc23)cc1` [5aa, 6-Fluoro-N-(4-fluorobenzyl)-4-Quinazolinamine], the remaining activity at 10 µM in assay [1] (setting [12]) was determined as 27%; in assay [2] (setting [12]) it was 19%; in [3] (setting [13]) it was 99%; in assay [4] (setting [13]), 92%; in assay [5] (setting [13]), 100%; in assay [6] (setting [13]) it was 88%. In addition, the remaining activity at 10 µM in [7] (setting [13]) amounted to 102%.
Take `Fc1ccc(CCNc2ncnc3ccc(F)cc23)cc1` [5as, 6-Fluoro-N-[2-(4-Fluorophenyl)Ethyl]-4-Quinazolinamine]: the remaining activity at 10 µM came out at 27% in assay [8]; 101% in [3] (setting [14]); 12% in assay [9] (setting [14]); 46% in [10] (setting [14]); 84% in assay [4] (setting [14]); 104% in assay [5] (setting [14]). The remaining activity at 10 µM in assay [6] (setting [14]) was determined as 94%; in assay [7] (setting [14]) it was 110%.
For `Fc1ccc2ncnc(NCCc3ccc(Cl)cc3)c2c1` [5at, N-[2-(4-Chlorophenyl)Ethyl]-6-Fluoro-4-Quinazolinamine], the IC50 in [11] is approximately 1000 nM. Besides, the remaining activity at 10 µM in assay [3] (setting [15]) is 105%; in [9] (setting [15]), 16%; in assay [10] (setting [15]) it was 72%; in [4] (setting [15]) it was 92%; in assay [5] (setting [15]) it was 101%; in assay [6] (setting [15]) it was 99%. The remaining activity at 10 µM in [7] (setting [15]) was determined as 103%.
For `COc1ccc2ncnc(Nc3cccc(F)c3)c2c1` [5ay, N-(3-Fluorophenyl)-6-Methoxy-4-Quinazolinamine], the remaining activity at 10 µM in [1] (setting [16]) was 1%; in assay [2] (setting [16]), 6%; in assay [3] (setting [17]), 93%; in assay [4] (setting [17]) it was 86%; in assay [5] (setting [17]) it was 107%; in assay [6] (setting [17]) it was 92%. Further, the remaining activity at 10 µM in [7] (setting [17]) is 116%.
